Laboratory results taken from patent US9193736B2, “PDE 10a inhibitors for the treatment of type II diabetes” (Janssen Pharmaceutica, NV, priority 2013, dated 2015).
Counter-ions that a name gives are not always drawn.

What was measured:
[1] = target: Human recombinant PDE10A2 (Homo sapiens (Human), UniProt Q9Y233); assay: In vitro hPDE10a: human recombinant PDE10A2 scintillation proximity assay, IC50; type: biochemical; conditions: human recombinant PDE10A2, SPA, 60 nM cAMP; read-out: hPDE10a2 IC50
Human recombinant PDE10A2, sequence (Q9Y233 267-1055): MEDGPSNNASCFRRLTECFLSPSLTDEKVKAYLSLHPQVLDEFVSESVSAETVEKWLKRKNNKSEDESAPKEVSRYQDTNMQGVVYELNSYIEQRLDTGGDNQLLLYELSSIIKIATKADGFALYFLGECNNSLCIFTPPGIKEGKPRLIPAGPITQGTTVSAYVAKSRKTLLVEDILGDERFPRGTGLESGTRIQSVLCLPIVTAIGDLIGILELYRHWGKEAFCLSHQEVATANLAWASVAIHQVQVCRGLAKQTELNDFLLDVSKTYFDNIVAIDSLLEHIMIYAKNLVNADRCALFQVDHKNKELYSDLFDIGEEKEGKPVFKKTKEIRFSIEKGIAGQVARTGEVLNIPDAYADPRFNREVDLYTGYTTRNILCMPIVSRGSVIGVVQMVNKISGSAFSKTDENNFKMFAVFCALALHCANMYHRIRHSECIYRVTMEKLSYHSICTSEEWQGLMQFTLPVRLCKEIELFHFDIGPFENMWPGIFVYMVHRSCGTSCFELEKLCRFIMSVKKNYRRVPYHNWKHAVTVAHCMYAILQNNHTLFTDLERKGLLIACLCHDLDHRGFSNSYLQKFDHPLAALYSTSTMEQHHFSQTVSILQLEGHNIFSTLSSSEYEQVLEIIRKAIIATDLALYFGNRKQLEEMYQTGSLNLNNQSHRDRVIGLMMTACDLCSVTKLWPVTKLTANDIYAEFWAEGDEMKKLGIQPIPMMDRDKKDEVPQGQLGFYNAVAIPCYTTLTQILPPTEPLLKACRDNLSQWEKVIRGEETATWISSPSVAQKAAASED
In short: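 Purified recombinant human PDE10A2 (Ni-sepharose) was assayed by SPA, counting [3H]-AMP product captured on yttrium silicate beads added in zinc sulphate stop solution. Inhibition was expressed as % of activity without compound, with a no-enzyme low control. Repeat data points were aggregated.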

[2] = target: Rat recombinant PDE10a (rPDE10a) (Rattus norvegicus (Rat), UniProt Q9QYJ6); assay: In vitro assay PDE10a: rat recombinant PDE10a SPA with 3H-cAMP substrate, IC50; type: biochemical; conditions: 60 nM cAMP, read-out: rPDE10a2 IC50
Rat recombinant PDE10a (rPDE10a), sequence (Q9QYJ6 whole entry): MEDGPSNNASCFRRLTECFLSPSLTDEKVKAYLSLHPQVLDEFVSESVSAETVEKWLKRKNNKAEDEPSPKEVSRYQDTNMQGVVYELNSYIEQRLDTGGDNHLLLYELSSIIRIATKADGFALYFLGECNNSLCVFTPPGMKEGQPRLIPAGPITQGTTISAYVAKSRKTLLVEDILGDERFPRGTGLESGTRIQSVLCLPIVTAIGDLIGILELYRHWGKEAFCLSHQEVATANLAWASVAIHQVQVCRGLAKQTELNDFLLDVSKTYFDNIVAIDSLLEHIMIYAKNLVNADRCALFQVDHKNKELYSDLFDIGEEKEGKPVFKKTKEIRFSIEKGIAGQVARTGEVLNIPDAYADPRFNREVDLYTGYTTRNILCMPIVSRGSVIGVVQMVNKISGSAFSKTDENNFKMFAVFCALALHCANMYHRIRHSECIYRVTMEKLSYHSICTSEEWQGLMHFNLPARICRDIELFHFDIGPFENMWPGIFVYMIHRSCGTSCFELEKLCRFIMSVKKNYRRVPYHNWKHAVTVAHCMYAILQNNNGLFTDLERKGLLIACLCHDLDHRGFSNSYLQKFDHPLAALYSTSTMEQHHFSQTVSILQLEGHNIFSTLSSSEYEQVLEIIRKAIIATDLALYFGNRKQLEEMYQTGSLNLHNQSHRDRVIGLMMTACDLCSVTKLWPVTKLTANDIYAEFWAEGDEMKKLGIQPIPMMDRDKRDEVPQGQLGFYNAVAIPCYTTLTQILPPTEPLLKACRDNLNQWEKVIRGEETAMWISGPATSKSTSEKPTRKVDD
In short: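 Enzyme expressed in Sf9 cells via baculovirus and Ni-sepharose purified; reaction with 3H-cAMP ran 60 min at rt, stopped with PDE SPA beads. Compounds diluted in DMSO at 100-fold final concentration; blanks omitted enzyme.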

IC50 [1] [nM]	IC50 [2] [nM]	Compound
58	23	CS(=O)(=O)NC(=O)c1cccc2nc(/C=C/c3nc4c(N5CCOCC5)cc(Cl)nn4c3-c3cccnc3)ccc12 [Cpd 141, (E)-2-(2-(6-Chloro-8-morpholino-3-(pyridin-3-yl)imidazo[1,2-b]pyridazin-2-yl)vinyl)-N-(methylsulfonyl)quinoline-5-carboxamide]
2	3	C(=C\c1nc2c(N3CCOCC3)ccnn2c1-c1ccc(-c2nnn[nH]2)nc1)/c1ccc2ccccc2n1 [Cpd 19, 2-[(E)-2-{8-Morpholin-4-yl-3-[6-(1H-tetrazol-5-yl)pyridin-3-yl]imidazo[1,2-b]pyridazin-2-yl}ethenyl]quinoline]
1	4	Oc1c(F)cc(-c2c(CCc3ccc4ccccc4n3)nc3c(N4CCOCC4)ccnn23)cc1F [compound 81, 2,6-Difluoro-4-(8-morpholino-2-(2-(quinolin-2-yl)ethyl)imidazo[1,2-b]pyridazin-3-yl)phenol]
1	< 1	O=C(O)c1cc2ccccc2nc1/C=C/c1cn2nc(Cl)cc(N3CCOCC3)c2n1 [Cpd 143, 2-[(E)-2-(6-Chloro-8-morpholin-4-ylimidazo[1,2-b]pyridazin-2-yl)ethenyl]quinoline-3-carboxylic acid]
2	1	O=C(O)c1cc(/C=C/c2cn3nc(Cl)cc(N4CCOCC4)c3n2)nc2ccccc12 [Cpd 126, 2-[(E)-2-(6-Chloro-8-morpholin-4-ylimidazo[1,2-b]pyridazin-2-yl)ethenyl]quinoline-4-carboxylic acid]
20	14	c1ccc2nc(CCc3nc4c(N5CCOCC5)ccnn4c3-c3ccc(N4CCNCC4)nc3)ccc2c1 [Cpd 13, 4-(3-(6-(piperazin-1-yl)pyridin-3-yl)-2-(2-(quinolin-2-yl)ethyl)imidazo[1,2-b]pyridazin-8-yl)morpholine trifluoroacetic acid salt]
< 1	< 1	O=C(O)c1ccc(-c2c(CCc3ccc4ccccc4n3)nc3c(N4CCOCC4)ccnn23)s1 [compound 61, 5-(8-Morpholino-2-(2-(quinolin-2-yl)ethyl)imidazo[1,2-b]pyridazin-3-yl)thiophene-2-carboxylic acid]
3	3	COc1cc(C(=O)O)ccc1-c1c(/C=C/c2ccc3ccccc3n2)nc2c(N3CCOCC3)ccnn12 [compound 98, (E)-3-Methoxy-4-(8-morpholino-2-(2-(quinolin-2-yl)vinyl)imidazo[1,2-b]pyridazin-3-yl)benzoic acid]
< 1	1	O=C(NO)c1cccc2nc(/C=C/c3cn4nccc(N5CCOCC5)c4n3)ccc12 [Cpd 118, N-Hydroxy-2-[(E)-2-(8-morpholin-4-ylimidazo[1,2-b]pyridazin-2-yl)ethenyl]quinoline-5-carboxamide]
8	6	C(=C\c1nc2c(N3CCOCC3)ccnn2c1-c1ccc(Sc2cnn[nH]2)nc1)/c1ccc2ccccc2n1 [Cpd 23, 2-[(E)-2-{8-Morpholin-4-yl-3-[6-(1H-1,2,3-triazol-5-ylsulfanyl)pyridin-3-yl]imidazo[1,2-b]pyridazin-2-yl}ethenyl]quinoline]
< 1	< 1	COc1cccc(C#Cc2nc3c(N4CCOCC4)ccnn3c2-c2ccc(C(=O)O)cc2)n1 [Cpd 109, 4-(2-((6-Methoxypyridin-2-yl)ethynyl)-8-morpholinoimidazo[1,2-b]pyridazin-3-yl)benzoic acid]
62	70	COc1cccc(/C=C/c2nc3c(N4CCOCC4)ccnn3c2-c2ccc(C(=O)O)cc2)n1 [Cpd 133, 4-{2-[(E)-2-(6-Methoxypyridin-2-yl)ethenyl]-8-morpholin-4-ylimidazo[1,2-b]pyridazin-3-yl}benzoic acid]
1	< 1	O=c1[nH]c(-c2ccc(-c3c(CCc4ccc5ccccc5n4)nc4c(N5CCOCC5)ccnn34)cn2)no1 [Cpd 37, 3-(5-(8-Morpholino-2-(2-(quinolin-2-yl)ethyl)imidazo[1,2-b]pyridazin-3-yl)pyridin-2-yl)-1,2,4-oxadiazol-5(4H)-one]
2	4	O=C(O)c1ccc(-c2c(/C=C/c3ccc4ccccc4n3)nc3c(N4CCOCC4)ccnn23)o1 [Cpd 58]
4	7	CC(C)[C@H](NC(=O)c1ccc(-c2c(CCc3ccc4ccccc4n3)nc3c(N4CCOCC4)ccnn23)cc1)C(=O)O [Cpd 75, N-({4-[8-Morpholin-4-yl-2-(2-quinolin-2-ylethyl)imidazo[1,2-b]pyridazin-3-yl]phenyl}carbonyl)-L-valine]
< 1	< 1	C(#Cc1cn2nccc(N3CCOCC3)c2n1)c1ccc2ccccc2n1 [Cpd 84, 2-[(8-Morpholin-4-ylimidazo[1,2-b]pyridazin-2-yl)ethynyl]quinoline]
21	10	C(=C\c1nc2c(N3CCOCC3)ccnn2c1-c1ccc(N2CCNCC2)nc1)/c1ccc2ccccc2n1 [Cpd 177, (E)-4-(3-(6-(piperazin-1-yl)pyridin-3-yl)-2-(2-(quinolin-2-yl)vinyl)imidazo[1,2-b]pyridazin-8-yl)morpholine trifluoroacetic acid salt]
6	6	COc1cccc(-c2c(/C=C/c3ccc4c(C(=O)NS(C)(=O)=O)cccc4n3)nc3c(N4CCOCC4)ccnn23)c1 [Cpd 150, (E)-2-(2-(3-(3-Methoxyphenyl)-8-morpholinoimidazo[1,2-b]pyridazin-2-yl)vinyl)-N-(methylsulfonyl)quinoline-5-carboxamide]
6	6	C(=C\c1nc2c(N3CCOCC3)ccnn2c1-c1ccc(-c2nnn[nH]2)cc1)/c1ccc2ccccc2n1 [compound 176, (E)-4-(3-(4-(1H-Tetrazol-5-yl)phenyl)-2-(2-(quinolin-2-yl)vinyl)imidazo[1,2-b]pyridazin-8-yl)morpholine]
6	10	COc1cc(/C=C/c2nc3c(N4CCOCC4)ccnn3c2-c2ccc(C(=O)O)cc2)nc2ccccc12 [Cpd 135, 4-{2-[(E)-2-(4-Methoxyquinolin-2-yl)ethenyl]-8-morpholin-4-ylimidazo[1,2-b]pyridazin-3-yl}benzoic acid]
3	8	CS(=O)(=O)NC(=O)c1cccc2nc(/C=C/c3cn4nc(Cl)cc(N5CCOCC5)c4n3)ccc12 [Cpd 104, 2-[(E)-2-(6-Chloro-8-morpholin-4-ylimidazo[1,2-b]pyridazin-2-yl)ethenyl]-N-(methylsulfonyl)quinoline-5-carboxamide]
4	2	CS(=O)(=O)NC(=O)c1cccc2nc(/C=C/c3nc4c(N5CCOCC5)ccnn4c3-c3ccccn3)ccc12 [Cpd 145, (E)-N-(Methylsulfonyl)-2-(2-(8-morpholino-3-(pyridin-2-yl)imidazo[1,2-b]pyridazin-2-yl)vinyl)quinoline-5-carboxamide]
4	5	CC(C)[C@H](NC(=O)c1ccc(-c2c(C#Cc3ccc4ccccc4n3)nc3c(N4CCOCC4)ccnn23)cc1)C(=O)O [Cpd 101, (S)-3-Methyl-2-(4-(8-morpholino-2-(quinolin-2-ylethynyl)imidazo[1,2-b]pyridazin-3-yl)benzamido)butanoic acid trifluoroacetic acid salt]
5	7	O=c1[nH]c(-c2ccc(-c3c(COc4ccc5ccccc5n4)nc4c(N5CCOCC5)ccnn34)cn2)no1 [Cpd 35, 3-(5-(8-Morpholino-2-((quinolin-2-yloxy)methyl)imidazo[1,2-b]pyridazin-3-yl)pyridin-2-yl)-1,2,4-oxadiazol-5(4H)-one]
427	132	O=S(=O)(Cc1nc2c(N3CCOCC3)ccnn2c1-c1ccc(N2CCNCC2)nc1)c1ccc2ccccc2n1 [Cpd 9, 4-(3-(6-(piperazin-1-yl)pyridin-3-yl)-2-((quinolin-2-ylsulfonyl)methyl)imidazo[1,2-b]pyridazin-8-yl)morpholine trifluoroacetic acid salt]
6	6	COc1cc2ccccc2nc1/C=C/c1nc2c(N3CCOCC3)ccnn2c1-c1ccc(C(=O)O)cc1 [Cpd 119, (E)-4-(2-(2-(3-Methoxyquinolin-2-yl)vinyl)-8-morpholinoimidazo[1,2-b]pyridazin-3-yl)benzoic acid]
4	7	CS(=O)(=O)NC(=O)c1cccc2nc(/C=C/c3nc4c(N5CCOCC5)ccnn4c3-c3ccccc3)ccc12 [Cpd 122, (E)-N-(Methylsulfonyl)-2-(2-(8-morpholino-3-phenylimidazo[1,2-b]pyridazin-2-yl)vinyl)quinoline-5-carboxamide]
72	28	C(=C\c1nc2c(N3CCOCC3)ccnn2c1N1CCCCC1)/c1ccc2ccccc2n1 [compound 154, (E)-4-(3-(Piperidin-1-yl)-2-(2-(quinolin-2-yl)vinyl)imidazo[1,2-b]pyridazin-8-yl)morpholine]

Compound	IC50 [1] [nM]	IC50 [2] [nM]
O=C(O)c1ccc(-c2c(CCc3ccc4c(n3)CCCC4)nc3c(N4CCOCC4)ccnn23)cc1 [Cpd 79, 4-(8-Morpholino-2-(2-(5,6,7,8-tetrahydroquinolin-2-yl)ethyl)imidazo[1,2-b]pyridazin-3-yl)benzoic acid trifluoroacetic acid salt]	3	8
c1ccc2nc(CNc3nc4c(N5CCOCC5)ccnn4c3-c3ccc(N4CCNCC4)nc3)ccc2c1 [Cpd 11, 8-Morpholino-3-(6-(piperazin-1-yl)pyridin-3-yl)-N-(quinolin-2-ylmethyl)imidazo[1,2-b]pyridazin-2-amine trifluoroacetic acid salt]	55	25
